Results taken from patent US20260226417A1, “METHOD FOR INHIBITING AGING OF STEM CELLS” (ENCELL CO., LTD, priority 2023, published 2026).

Legend:
[1] = test system: SASP (senescence-associated secretory phenotype) markers MMP3, IGFBP5, IGFBP7; assay: qRT-PCR of SASP markers in replicative senescence model (P18); format: cell-based, human; settings: 160 μM, 3 days
Procedure: Additionally, there is a report in which the gene expression of SASP (senescence-associated secretory phenotype) is increased in senescent cells, so the expression of MMP3, IGFBP5, and IGFBP7 was assessed at the mRNA level through qRT-PCR.
(§1) Specifically, qRT-PCR performed in this example is as follows: after treating the replicative senescence model (P18) with nervonic acid for 3 days, total RNA was extracted using Trizol (Invitrogen, MA, USA) according to the method provided by the vendor. After quantifying the extracted total RNA, random hexamer and dNTP were added, and PCR was performed at 65° C. for 5 minutes. 5× SSIV buffer, 100 mM DTT, RNAse OUT, and Superscript IV RT were added and reverse transcription was performed to synthesize cDNA, and then qRT-PCR was performed to measure gene expression, and the expression levels were compared through 2^−ΔΔCt analysis.

[2] = test system: SASP markers IL-6, MMP3, IGFBP3, IGFBP5, IGFBP7; assay: qRT-PCR of SASP markers at P10 after treatment at each passage; format: cell-based, human; settings: 160 μM for 24 hours at each passage
Procedure: as §1
(§2) Example 8. Confirmation Of anti-senescence efficacy by treating various human tissue-derived mesenchymal stem cells with nervonic acid Human-derived mesenchymal stem cells were treated with nervonic acid (160 μM) at each passage during cell culture from control cells (P5) to P10 to determine whether continuous treatment with nervonic acid during cell culture at early passage numbers was able to delay cellular senescence.
(§3) Specifically, from the day after human-derived mesenchymal stem cells were subcultured, treatment with 160 μM nervonic acid or an equivalent amount of DMSO (control) for 24 hours was performed, followed by replacement with the existing culture medium the next day. The above process was repeated to perform subculture up to P10 (passage 10). As such, B galactosidase staining for measuring cellular senescence was performed at P7, P8, P9, and P10, and cell doubling time and RNA extraction for qRT-PCR were both performed at P10. A more specific procedure therefor was carried out in the same manner as described above.

[3] = test system: human-derived mesenchymal stem cells, control cells (P5) subcultured to P10; assay: β-galactosidase staining during serial subculture P5 to P10 with treatment at each passage; format: cell-based; settings: 160 μM for 24 hours at each passage
Procedure: as §2, §3

[4] = test system: senescence markers P16 and P21; assay: qRT-PCR of senescence markers P16 and P21 in replicative senescence model (P18); format: cell-based, human; settings: 160 μM, 3 days
Procedure: In order to verify the anti-senescence efficacy of nervonic acid, the expression levels of senescence-related markers in a control group (P5) and a replicative senescence model (P18) were measured after treatment with nervonic acid (160 μM).
as §1

[5] = test system: human umbilical cord blood-derived mesenchymal stem cells (UCB-MSCs/passage 16); assay: β-galactosidase staining, senescent UCB-MSCs; format: cell-based; settings: UCB-MSCs passage 16, 3 days
Description: Human placenta-derived mesenchymal stem cells (pl-mscs) Were Isolated From Placentas Separated according to the previously reported method of Choi et al. (PLOS ONE, (2017) 12 (2): e0172642), umbilical cord blood-derived mesenchymal stem cells (UCB-MSCs) were isolated from the umbilical cord blood separated according to the method of Kim et al. (FEBS Letters, (2010) 584:3601-3608), and adipose tissue-derived mesenchymal stem cells (AD-MSCs) were isolated from adipose tissue separated according to the previously reported method of Palumbo et al. (Int. J. Mol. Sci. (2018) 19:1987).
Each of the obtained mesenchymal stem cells was subcultured in aMEM (a-modified Minimum Essential Media) containing 10% fetal bovine serum (FBS) and 0.5% gentamicin (10 mg/ml).
The replicative senescence models of human adipose-derived mesenchymal stem cells (AD-MSCs/passage 18), human bone marrow-derived mesenchymal stem cells (BM-MSCs/passage 15), human umbilical cord blood-derived mesenchymal stem cells (UCB-MSCs/passage 16), and human placenta-derived mesenchymal stem cells (PL-MSCs/passage 18) established as described above were treated with nervonic acid for 3 days, and β-galactosidase staining was performed to observe the extent of senescence.

[6] = test system: Annexin V, an apoptosis marker, in muscle tissue; assay: Annexin V Western blotting in muscle tissue of muscle disease mouse model after injection of treated P18 cells; format: in vivo; settings: P18 cells treated with 160 μM for 72 hours, 5×10^4 cells per mouse via tail vein, one week after injection
Procedure: A replicative senescence model (P18) was treated with nervonic acid (160 μM) and then injected into a muscle disease mouse model to assess the effect of nervonic acid treatment on the therapeutic efficacy of the replicative senescence model (P18) in terms of reducing apoptosis in muscle tissue.
Specifically, the muscle disease mouse model used was C57BL/10ScSn-Dmdmdx/J (mdx mouse) , and C57BL/10J with the same genetic background was used as a control group. All experiments were conducted using mice aged 4 to 5 months. The cells to be injected were human umbilical cord-derived young mesenchymal stem cells (control group) (P5) and replicative senescence model (P18). More specifically, the replicative senescence model (P18) was treated with 160 μM nervonic acid or an equivalent amount of DMSO for 72 hours during culture at P18 and then dissociated as single cells with 0.25% Trypsin/EDTA (Gibco, MT, USA), and 5×10^4 cells per mouse were injected via the tail vein. One week after injection, both tibial muscles of the mouse model were harvested and fixed in 4% paraformaldehyde or frozen.
In addition, the expression of Annexin V was assessed at the protein level. Specifically, the protein to be used in the experiment was extracted from muscle tissue. […]

[7] = test system: replicative senescence model of human umbilical cord-derived mesenchymal stem cells (P18); assay: Screening of gut microbiota-derived metabolite library for senescence control (primary HTS and secondary cell viability screening); format: cell-based
Description: Example 2. Screening of gut microbiota-derived metabolites for senescence control of human umbilical cord-derived mesenchymal stem cells In order to determine differences in metabolite reactivity depending on the senescence status of human umbilical cord-derived mesenchymal stem cells, a library of 485 gut microbiota-derived metabolites was used to select candidates that inhibit the proliferation or cause death of replicative senescent stem cells.
Thereby, 13 candidates showing low viability only in the replicative senescence model (P18) without affecting the viability of the control cells (P5) were selected by primary screening, and the experimental group was treated with the metabolite at 25 μM, 50 μM, 100 μM, 200 μM, 300 μM, 400 μM, and 500 μM to determine the optimal concentration of the metabolite by secondary screening, analyzing the senescence control effect at a total of 7 metabolite concentrations.

CCCCCCCC/C=C\CCCCCCCCCCCCCC(=O)O [nervonic acid]
IGFBP5 mRNA expression, fold compared to before treatment [1]: 0.62±0.03 fold | IGFBP7 mRNA expression, fold compared to before treatment [1]: 0.77±0.03 fold | MMP3 mRNA expression, fold compared to before treatment [1]: 0.76±0.04 fold | IGFBP3 mRNA expression, fold compared to control group (DMSO) [2]: 0.77±0.03 fold | IGFBP5 mRNA expression, fold compared to control group (DMSO) [2]: 0.80±0.03 fold | IGFBP7 mRNA expression, fold compared to control group (DMSO) [2]: 0.91±0.03 fold | IL-6 mRNA expression, fold compared to control group (DMSO) [2]: 0.77±0.03 fold | MMP3 mRNA expression, fold compared to control group (DMSO) [2]: 0.65±0.07 fold | extent of senescence (β-galactosidase staining), fold compared to DMSO control at P10 [3]: 0.40±0.07 fold | P16 mRNA level, fold compared to before treatment [4]: 0.78±0.01 fold | P21 mRNA level, fold compared to before treatment [4]: 0.82±0.02 fold | progression of senescence (β-galactosidase staining) compared to control group (DMSO) [5]: progression of senescence was significantly inhibited | Annexin V protein expression (Western blotting), fold decrease compared to mdx control group [6]: 0.30±0.02 fold | senescence control effect in secondary screening ([7]; 13 candidates tested at 25-500 μM (7 concentrations), P18 vs P5): greatest effect on controlling senescence | concentration exhibiting senescence control efficacy in secondary screening ([7]; secondary screening): about 200 μM
